From the kinase profiling compilation of Christmann-Franck et al. (2016)

How the values were obtained:
Assay in all cases: KINOMEscan competition binding
Conditions in all cases: compound 10.0 µM
[1] = biological target: LYN (human) (UniProt P07948)
[2] = biological target: CSNK1E (human) (UniProt P49674)
[3] = biological target: CDK7 (human) (UniProt P50613)
[4] = biological target: AXL (human) (UniProt P30530)
[5] = biological target: TESK1 (human) (UniProt Q15569)
[6] = biological target: MAP3K11 (human) (UniProt Q16584)
[7] = biological target: PIK3C2B (human) (UniProt O00750)
[8] = biological target: FER (human) (UniProt P16591)
[9] = biological target: CSNK1D (human) (UniProt P48730)
[10] = biological target: MAPK11 (human) (UniProt Q15759)
[11] = biological target: MARK2 (human) (UniProt Q7KZI7)
[12] = biological target: ERBB4 (human) (UniProt Q15303)
[13] = biological target: STK33 (human) (UniProt Q9BYT3)
[14] = biological target: MERTK (human) (UniProt Q12866)
[15] = biological target: CDK14 (human) (UniProt O94921)
[16] = biological target: CSNK1G1 (human) (UniProt Q9HCP0)
[17] = biological target: ERBB2 (human) (UniProt P04626)
[18] = biological target: MINK1 (human) (UniProt Q8N4C8)
[19] = biological target: PRPF4B (human) (UniProt Q13523)
[20] = biological target: DAPK2 (human) (UniProt Q9UIK4)
[21] = biological target: TLK2 (human) (UniProt Q86UE8)
[22] = biological target: EPHA8 (human) (UniProt P29322)
[23] = biological target: CDKL2 (human) (UniProt Q92772)
[24] = biological target: IGF1R (human) (UniProt P08069)
[25] = biological target: VRK2 (human) (UniProt Q86Y07)
[26] = biological target: INSRR (human) (UniProt P14616)
[27] = biological target: FGFR3 (human) (UniProt P22607)
[28] = biological target: RET (human) (UniProt P07949)
[29] = biological target: OXSR1 (human) (UniProt O95747)
[30] = biological target: ACVR2B (human) (UniProt Q13705)
[31] = biological target: DYRK2 (human) (UniProt Q92630)
[32] = biological target: PIK3CB (human) (UniProt P42338)
[33] = biological target: PRKAA1 (human) (UniProt Q13131)
[34] = biological target: CSNK1G3 (human) (UniProt Q9Y6M4)
[35] = biological target: CDC42BPA (human) (UniProt Q5VT25)
[36] = biological target: EPHB2 (human) (UniProt P29323)
[37] = biological target: PAK2 (human) (UniProt Q13177)
[38] = biological target: CASK (human) (UniProt O14936)
[39] = biological target: RIOK2 (human) (UniProt Q9BVS4)
[40] = biological target: NLK (human) (UniProt Q9UBE8)

PRKAA1 (human), sequence (Q13131 whole entry, looked up): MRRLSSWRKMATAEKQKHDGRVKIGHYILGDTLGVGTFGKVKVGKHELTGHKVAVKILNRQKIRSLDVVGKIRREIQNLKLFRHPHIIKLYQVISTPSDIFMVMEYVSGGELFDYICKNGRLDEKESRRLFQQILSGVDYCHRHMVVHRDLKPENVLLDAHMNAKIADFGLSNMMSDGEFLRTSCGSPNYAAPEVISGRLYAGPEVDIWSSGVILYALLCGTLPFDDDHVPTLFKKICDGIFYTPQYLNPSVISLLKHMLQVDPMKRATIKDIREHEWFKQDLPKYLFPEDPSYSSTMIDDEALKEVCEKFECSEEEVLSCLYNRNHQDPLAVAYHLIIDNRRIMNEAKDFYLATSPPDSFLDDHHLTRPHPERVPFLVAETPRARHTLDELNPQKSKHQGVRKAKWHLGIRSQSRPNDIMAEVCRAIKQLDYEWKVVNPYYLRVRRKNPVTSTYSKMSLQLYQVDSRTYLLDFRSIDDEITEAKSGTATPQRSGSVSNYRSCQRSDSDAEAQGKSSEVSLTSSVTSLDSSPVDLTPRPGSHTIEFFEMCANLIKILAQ
EPHA8 (human), sequence (P29322 whole entry, looked up): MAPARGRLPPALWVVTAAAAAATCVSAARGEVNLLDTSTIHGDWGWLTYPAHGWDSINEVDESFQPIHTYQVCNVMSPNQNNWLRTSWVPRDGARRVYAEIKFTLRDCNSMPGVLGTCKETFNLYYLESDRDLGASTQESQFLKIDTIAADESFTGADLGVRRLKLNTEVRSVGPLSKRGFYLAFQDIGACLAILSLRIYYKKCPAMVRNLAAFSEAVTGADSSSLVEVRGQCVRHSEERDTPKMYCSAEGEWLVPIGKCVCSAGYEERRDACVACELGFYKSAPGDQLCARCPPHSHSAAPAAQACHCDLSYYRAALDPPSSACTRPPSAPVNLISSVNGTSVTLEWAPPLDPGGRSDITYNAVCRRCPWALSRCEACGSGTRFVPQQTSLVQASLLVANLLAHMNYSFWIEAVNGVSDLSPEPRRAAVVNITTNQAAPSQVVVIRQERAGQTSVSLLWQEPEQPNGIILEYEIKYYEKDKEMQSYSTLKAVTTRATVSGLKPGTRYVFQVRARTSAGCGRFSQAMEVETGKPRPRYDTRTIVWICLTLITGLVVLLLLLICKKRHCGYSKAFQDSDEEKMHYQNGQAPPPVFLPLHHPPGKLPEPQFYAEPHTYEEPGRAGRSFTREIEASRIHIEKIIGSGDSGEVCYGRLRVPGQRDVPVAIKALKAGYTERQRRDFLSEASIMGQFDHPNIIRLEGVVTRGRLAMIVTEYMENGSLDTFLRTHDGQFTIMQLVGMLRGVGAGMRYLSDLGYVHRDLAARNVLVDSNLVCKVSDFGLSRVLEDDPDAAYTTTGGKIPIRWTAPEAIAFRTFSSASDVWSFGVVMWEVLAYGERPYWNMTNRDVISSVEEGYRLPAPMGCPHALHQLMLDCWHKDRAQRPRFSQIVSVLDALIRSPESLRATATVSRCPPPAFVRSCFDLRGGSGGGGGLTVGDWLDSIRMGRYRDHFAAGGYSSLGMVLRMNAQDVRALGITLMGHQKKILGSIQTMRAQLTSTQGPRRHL
CSNK1G1 (human), sequence (Q9HCP0 whole entry, looked up): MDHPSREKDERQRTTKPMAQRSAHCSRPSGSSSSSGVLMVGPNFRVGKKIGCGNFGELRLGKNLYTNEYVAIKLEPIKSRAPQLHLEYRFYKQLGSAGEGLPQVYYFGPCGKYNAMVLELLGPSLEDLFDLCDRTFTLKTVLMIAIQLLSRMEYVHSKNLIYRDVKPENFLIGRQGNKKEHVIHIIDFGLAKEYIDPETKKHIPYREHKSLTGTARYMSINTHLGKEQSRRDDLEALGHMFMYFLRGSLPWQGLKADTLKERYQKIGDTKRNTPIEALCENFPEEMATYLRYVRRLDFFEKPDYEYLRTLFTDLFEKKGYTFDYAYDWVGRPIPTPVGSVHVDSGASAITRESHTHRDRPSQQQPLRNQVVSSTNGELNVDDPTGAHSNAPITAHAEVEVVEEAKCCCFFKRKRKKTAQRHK
CDC42BPA (human), sequence (Q5VT25 whole entry, looked up): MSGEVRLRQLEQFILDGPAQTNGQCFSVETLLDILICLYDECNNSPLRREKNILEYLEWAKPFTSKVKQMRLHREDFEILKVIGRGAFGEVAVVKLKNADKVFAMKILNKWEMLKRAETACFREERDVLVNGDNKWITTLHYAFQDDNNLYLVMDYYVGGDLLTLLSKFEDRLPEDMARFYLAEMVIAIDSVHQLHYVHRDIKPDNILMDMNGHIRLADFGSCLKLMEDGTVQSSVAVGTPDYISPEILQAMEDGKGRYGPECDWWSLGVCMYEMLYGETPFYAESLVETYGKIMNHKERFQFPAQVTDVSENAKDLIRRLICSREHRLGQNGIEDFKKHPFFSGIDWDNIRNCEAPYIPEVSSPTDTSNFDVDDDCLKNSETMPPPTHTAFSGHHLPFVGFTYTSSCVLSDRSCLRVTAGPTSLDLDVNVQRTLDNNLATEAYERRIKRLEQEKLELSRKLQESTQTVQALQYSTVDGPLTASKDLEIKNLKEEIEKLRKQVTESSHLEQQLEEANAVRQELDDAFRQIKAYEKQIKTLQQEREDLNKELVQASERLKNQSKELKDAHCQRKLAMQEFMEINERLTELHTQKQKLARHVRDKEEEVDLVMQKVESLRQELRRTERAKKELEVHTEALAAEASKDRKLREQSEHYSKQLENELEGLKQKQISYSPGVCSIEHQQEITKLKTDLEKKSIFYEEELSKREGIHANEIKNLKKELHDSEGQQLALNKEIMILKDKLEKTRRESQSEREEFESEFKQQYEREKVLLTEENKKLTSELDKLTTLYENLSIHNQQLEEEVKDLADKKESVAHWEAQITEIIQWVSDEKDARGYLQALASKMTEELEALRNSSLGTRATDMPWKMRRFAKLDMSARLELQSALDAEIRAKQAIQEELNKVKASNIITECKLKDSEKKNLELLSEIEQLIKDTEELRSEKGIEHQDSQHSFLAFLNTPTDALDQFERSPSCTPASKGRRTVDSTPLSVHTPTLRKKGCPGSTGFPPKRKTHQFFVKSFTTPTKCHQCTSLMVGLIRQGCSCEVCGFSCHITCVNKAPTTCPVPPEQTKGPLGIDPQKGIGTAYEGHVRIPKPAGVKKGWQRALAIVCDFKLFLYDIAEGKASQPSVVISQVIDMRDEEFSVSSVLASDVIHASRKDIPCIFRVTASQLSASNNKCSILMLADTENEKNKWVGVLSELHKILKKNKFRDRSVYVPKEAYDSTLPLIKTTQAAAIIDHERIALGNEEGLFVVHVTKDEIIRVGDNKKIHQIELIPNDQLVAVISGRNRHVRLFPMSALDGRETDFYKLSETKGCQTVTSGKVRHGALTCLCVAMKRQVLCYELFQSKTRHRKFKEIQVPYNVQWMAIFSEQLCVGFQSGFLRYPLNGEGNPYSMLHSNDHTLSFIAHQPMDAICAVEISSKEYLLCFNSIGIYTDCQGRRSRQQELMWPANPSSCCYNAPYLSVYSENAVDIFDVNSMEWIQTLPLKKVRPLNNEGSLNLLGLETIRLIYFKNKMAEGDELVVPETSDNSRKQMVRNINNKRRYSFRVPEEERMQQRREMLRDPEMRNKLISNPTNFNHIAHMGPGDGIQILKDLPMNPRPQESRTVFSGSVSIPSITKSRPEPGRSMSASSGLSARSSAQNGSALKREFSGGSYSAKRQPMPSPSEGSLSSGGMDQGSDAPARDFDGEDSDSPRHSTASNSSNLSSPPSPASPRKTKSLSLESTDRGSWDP
LYN (human), sequence (P07948 whole entry, looked up): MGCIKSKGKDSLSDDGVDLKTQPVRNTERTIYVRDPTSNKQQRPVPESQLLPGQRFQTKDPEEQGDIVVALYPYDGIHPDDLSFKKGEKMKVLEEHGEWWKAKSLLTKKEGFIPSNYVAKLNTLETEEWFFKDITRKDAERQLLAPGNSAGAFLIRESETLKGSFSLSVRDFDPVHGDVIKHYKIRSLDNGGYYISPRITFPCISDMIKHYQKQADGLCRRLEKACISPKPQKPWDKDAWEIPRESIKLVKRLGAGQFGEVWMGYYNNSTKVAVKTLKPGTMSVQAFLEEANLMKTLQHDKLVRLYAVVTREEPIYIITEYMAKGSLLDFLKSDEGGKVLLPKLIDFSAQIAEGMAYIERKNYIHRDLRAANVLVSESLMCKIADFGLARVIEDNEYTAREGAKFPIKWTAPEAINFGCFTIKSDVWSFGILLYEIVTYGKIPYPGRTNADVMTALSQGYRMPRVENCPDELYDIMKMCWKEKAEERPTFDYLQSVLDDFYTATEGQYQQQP
MAP3K11 (human), sequence (Q16584 whole entry, looked up): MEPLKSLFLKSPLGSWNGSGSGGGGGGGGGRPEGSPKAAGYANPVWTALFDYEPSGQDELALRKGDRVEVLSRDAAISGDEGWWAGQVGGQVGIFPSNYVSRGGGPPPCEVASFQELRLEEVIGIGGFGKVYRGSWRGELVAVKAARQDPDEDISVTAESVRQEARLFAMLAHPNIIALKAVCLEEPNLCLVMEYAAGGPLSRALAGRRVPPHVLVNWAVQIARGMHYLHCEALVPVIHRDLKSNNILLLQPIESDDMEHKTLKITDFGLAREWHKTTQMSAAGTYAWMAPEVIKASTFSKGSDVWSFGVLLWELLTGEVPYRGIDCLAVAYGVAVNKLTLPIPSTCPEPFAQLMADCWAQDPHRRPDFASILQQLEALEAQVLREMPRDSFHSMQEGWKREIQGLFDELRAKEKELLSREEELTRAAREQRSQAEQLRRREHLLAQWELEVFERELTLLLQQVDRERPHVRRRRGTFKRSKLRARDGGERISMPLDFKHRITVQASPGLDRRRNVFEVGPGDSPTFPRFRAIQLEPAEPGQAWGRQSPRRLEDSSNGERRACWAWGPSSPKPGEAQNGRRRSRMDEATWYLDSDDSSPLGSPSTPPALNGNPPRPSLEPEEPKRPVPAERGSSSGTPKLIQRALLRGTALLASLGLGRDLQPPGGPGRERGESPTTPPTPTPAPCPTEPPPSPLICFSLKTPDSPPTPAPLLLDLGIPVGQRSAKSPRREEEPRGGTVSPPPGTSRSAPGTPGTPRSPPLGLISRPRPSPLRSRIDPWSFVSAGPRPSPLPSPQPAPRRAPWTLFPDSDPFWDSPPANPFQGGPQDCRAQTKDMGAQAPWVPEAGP

| Compound | kinase still bound, per cent of control [1] | kinase still bound, per cent of control [2] | kinase still bound, per cent of control [3] | kinase still bound, per cent of control [4] | kinase still bound, per cent of control [5] | kinase still bound, per cent of control [6] | kinase still bound, per cent of control [7] | kinase still bound, per cent of control [8] | kinase still bound, per cent of control [9] | kinase still bound, per cent of control [10] | kinase still bound, per cent of control [11] | kinase still bound, per cent of control [12] | kinase still bound, per cent of control [13] | kinase still bound, per cent of control [14] | kinase still bound, per cent of control [15] | kinase still bound, per cent of control [16] | kinase still bound, per cent of control [17] | kinase still bound, per cent of control [18] | kinase still bound, per cent of control [19] | kinase still bound, per cent of control [20] | further results |
| --- | --- | --- | --- | --- | --- | --- | --- | --- | --- | --- | --- | --- | --- | --- | --- | --- | --- | --- | --- | --- | --- |
| CCN1CCN(C(=O)Cc2ccc(Nc3ncc(F)c(Nc4ccc(C(=O)Nc5ccccc5Cl)cc4)n3)cc2)CC1 | 46% | 100% | 22% | 2.1% | 44% | 4.6% | 93% | 100% | 100% | 81% | 50% | 53% | 35% | 2% | 53% | 100% | 100% | 57% | 18% | 15% | kinase still bound, per cent of control [21]: 33%; kinase still bound, per cent of control [22]: 63%; kinase still bound, per cent of control [23]: 24%; kinase still bound, per cent of control [24]: 46%; kinase still bound, per cent of control [25]: 100%; kinase still bound, per cent of control [26]: 63%; kinase still bound, per cent of control [27]: 20%; kinase still bound, per cent of control [28]: 1.8%; kinase still bound, per cent of control [29]: 100%; kinase still bound, per cent of control [30]: 38%; kinase still bound, per cent of control [31]: 18%; kinase still bound, per cent of control [32]: 83%; kinase still bound, per cent of control [33]: 32%; kinase still bound, per cent of control [34]: 100%; kinase still bound, per cent of control [35]: 100%; kinase still bound, per cent of control [36]: 93%; kinase still bound, per cent of control [37]: 56%; kinase still bound, per cent of control [38]: 82%; kinase still bound, per cent of control [39]: 17%; kinase still bound, per cent of control [40]: 98% |
| C=CC(=O)Nc1cc(-n2c(=O)ccc3cnc4ccc(-c5cn[nH]c5)cc4c32)ccc1C | 100% | 88% | 3.8% | 100% | 54% | 100% | 53% | 100% | 47% | 89% | 83% | 22% | 100% | 100% | 60% | 86% | 42% | 31% | 84% | 57% | kinase still bound, per cent of control [21]: 100%; kinase still bound, per cent of control [22]: 96%; kinase still bound, per cent of control [23]: 17%; kinase still bound, per cent of control [24]: 100%; kinase still bound, per cent of control [25]: 88%; kinase still bound, per cent of control [26]: 100%; kinase still bound, per cent of control [27]: 89%; kinase still bound, per cent of control [28]: 55%; kinase still bound, per cent of control [29]: 79%; kinase still bound, per cent of control [30]: 21%; kinase still bound, per cent of control [31]: 0.6%; kinase still bound, per cent of control [32]: 62%; kinase still bound, per cent of control [33]: 96%; kinase still bound, per cent of control [34]: 84%; kinase still bound, per cent of control [35]: 97%; kinase still bound, per cent of control [36]: 100%; kinase still bound, per cent of control [37]: 87%; kinase still bound, per cent of control [38]: 58%; kinase still bound, per cent of control [39]: 12%; kinase still bound, per cent of control [40]: 63% |
